≈ marks a conversion by molar mass, not a printed value. Read-outs that look alike come from different tables or passages of the source.
Assays:
[1] = test system: Enterococcus faecalis ATCC 29212 Vancomycin Sensitive; assay: In-vitro antibacterial activity, broth microdilution MIC; assay type: cell-based
Procedure: (§1) The in-vitro antibacterial activity of the compounds of the present invention (as described in Table 7) was determined by a broth microdilution following the guidelines prescribed by the Clinical and Laboratory Standards Institute (CLSI). This method is described in the CLSI Document M7-A7, Vol. 26, No. 2, “Methods for Dilution Antimicrobial Susceptibility Test for Bacteria that Grow Aerobically; Approved Standard-Seventh Edition”, which is incorporated herein by reference. Minimum Inhibitory Concentration (MIC) is defined as the minimum concentration of test compound which inhibits the growth of bacteria as visible or seen by the naked eye. This test can also be carried out by agar dilution method.
(§2) The compounds of the present invention were tested against a panel of standard microorganisms obtained from ATCC (American type culture collection). Linezolid was used as comparator in all the tests.
(§3) In the broth microdilution method, the compound was dissolved in dimethylsulfoxide and two fold serial dilutions were carried out in 96 well microtitre plates. The inoculum was prepared by adjusting the turbidity of actively growing broth culture and added to the wells to obtain a final bacterial count of ˜2-5×10^4 CFU/well. The microtitre plates were incubated at 35±2° C. for 16-20 h and then read visually.

[2] = test system: Staphylococcus aureus ATCC 29213 MSSA (Methicillin sensitive); assay: as above; assay type: cell-based
Procedure: as §1, §2, §3

[3] = test system: Enterococcus faecium ATCC 700221 VRE (Vancomycin resistant E. faecium); assay: as above; assay type: cell-based
Procedure: as §1, §2, §3

[4] = test system: Staphylococcus aureus ATCC 33591 MRSA (Methicillin resistant); assay: as above; assay type: cell-based
Procedure: as §1, §2, §3

male SWISS albino mice = assay: Forced Swim Test; assay type: in vivo; details: for inhibition in vivo at 32 mg/kg: Mus musculus, 0.25 h, read-out: % decrease in immobility time (dose 32 mg/kg)
Procedure: This test was conducted according to the method of Porsolt et al. (Porsolt, R. D., et al., Behavioural despair in mice: A primary screening test for antidepressants. Arch. in Pharmacodyn. Ther., 229, pp 327-336 (1977)).
A test compound was suspended in deionized water, unless otherwise specified, and this suspension was orally administered to male SWISS albino mice (7 to 9 week old). 15 min later, the mice were placed in a water tank having a water depth of 15 cm and a water temperature of 25±1° C. and immediately thereafter allowed to swim for 6 min. Then, a time during which the mouse was immobile (immobility time) was measured for the last 4 min.

[5] = ATCC29212, Table 7, E. faecalis vancomycin sensitive, broth microdilution, 35±2° C., 16-20 h, read-out: MIC ATCC 29212
[6] = Table 7, S. aureus MSSA, broth microdilution, 35±2° C., 16-20 h, read-out: MIC ATCC 29213
[7] = Table 7, broth microdilution, 35±2° C., 16-20 h, read-out: MIC ATTC 700221
[8] = Table 7, S. aureus MRSA, broth microdilution, 35±2° C., 16-20 h, read-out: MIC ATCC 33591
[9] = Table 8, mice, oral, 32 mg/kg, suspended in deionized water, 15 min before test
[10] = Table 8, mice, oral, suspended in deionized water, 15 min before test

Compound: CC(=O)NC[C@H]1CN(c2ccc(C34CC3CN(c3nccs3)C4)cc2)C(=O)O1 (stereo partly drawn)
- MIC [1, 5]: 0.125 µg/mL (≈ 0.314 µM)
- MIC [2, 6]: 0.5 µg/mL (≈ 1.25 µM)
- MIC [3, 7]: 0.5 µg/mL (≈ 1.25 µM)
- MIC [4, 8]: 0.25 µg/mL (≈ 0.627 µM)

Compound: CC(=O)NC[C@H]1CN(c2ccc(C34CC3CN(c3ccc(F)nc3)C4)cc2)C(=O)O1 (stereo partly drawn)
- MIC [1, 5]: 1 µg/mL (≈ 2.44 µM)
- MIC [2, 6]: 1 µg/mL (≈ 2.44 µM)
- MIC [3, 7]: 0.5 µg/mL (≈ 1.22 µM)
- MIC [4, 8]: 0.5 µg/mL (≈ 1.22 µM)

Compound: CC(=O)NC[C@H]1CN(c2ccc(C34CC3CN(c3nc5ccccc5s3)C4)cc2)C(=O)O1 (stereo partly drawn)
- MIC [1, 5]: 1 µg/mL (≈ 2.23 µM)
- MIC [2, 6]: 1 µg/mL (≈ 2.23 µM)
- MIC [3, 7]: 0.25 µg/mL (≈ 0.557 µM)
- MIC [4, 8]: 0.5 µg/mL (≈ 1.11 µM)

Compound: CCN1C[C@H]2C[C@@]2(c2ccc(N3CCOCC3)cc2)C1
- inhibition in vivo at 32 mg/kg (male SWISS albino mice; [9]): 87.7 ± 6%

Compound: CCN1CC2CC2(c2ccc(N3CCn4cnnc4C3)cc2)C1 (stereo not drawn)
- % decrease in immobility time (dose 64 mg/kg) (male SWISS albino mice; [10]): 89.6 ± 10.4%

Compound: COCCN1C[C@H]2C[C@@]2(c2ccc(N3CCOCC3)cc2)C1
- % decrease in immobility time (dose 64 mg/kg) (male SWISS albino mice; [10]): 79.2 ± 14.9%

Compound: CC1CN(c2ccc([C@]34CNC[C@H]3C4)cc2)CC(C)O1 (stereo partly drawn)
- % decrease in immobility time (dose 64 mg/kg) (male SWISS albino mice; [10]): 63.9 ± 4.8%

Compound: CCN1CC2CC2(c2cc3cc(N4CCOCC4)ccc3s2)C1 (stereo not drawn)
- % decrease in immobility time (dose 64 mg/kg) (male SWISS albino mice; [10]): 38.4 ± 2.7%

Compound: CCN1C[C@H]2C[C@@]2(c2ccc(N3CC(C)OC(C)C3)cc2)C1 (stereo partly drawn)
- % decrease in immobility time (dose 64 mg/kg) (male SWISS albino mice; [10]): 92.4 ± 7.6%

Compound: CCN1C[C@@H]2C[C@]2(c2ccc(N3CC(C)OC(C)C3)cc2)C1 (stereo partly drawn)
- inhibition in vivo at 32 mg/kg (male SWISS albino mice; [9]): 80.9 ± 8.7%

Compound: CCN1CC2CC2(c2ccc(N3CC(C)OC(C)C3)cc2)C1 (stereo not drawn)
- inhibition in vivo at 32 mg/kg (male SWISS albino mice; [9]): 81.6 ± 10.1%

Compound: CCN1C[C@H]2C[C@@]2(c2ccc(N3CCCC3)cc2)C1
- inhibition in vivo at 32 mg/kg (male SWISS albino mice; [9]): 97.7 ± 2.3%

Compound: CCN1CC2CC2(c2ccc(N3CCC(F)C3)cc2)C1 (stereo not drawn)
- inhibition in vivo at 32 mg/kg (male SWISS albino mice; [9]): 77.1 ± 11.2%

Compound: CCN1CC2CC2(c2ccc(N3CCC(F)CC3)cc2)C1 (stereo not drawn)
- inhibition in vivo at 32 mg/kg (male SWISS albino mice; [9]): 62.8 ± 23.4%

Compound: CCN1C[C@H]2C[C@@]2(c2ccc(N3CCC(F)C3)cc2)C1 (stereo partly drawn)
- inhibition in vivo at 32 mg/kg (male SWISS albino mice; [9]): 75.5 ± 12.9%

Compound: CCN1CC2CC2(c2ccc(N3CCN(c4ccccc4)CC3)cc2)C1 (stereo not drawn)
- % decrease in immobility time (dose 64 mg/kg) (male SWISS albino mice; [10]): 65.8 ± 9.9%

Compound: CCN1CC2CC2(c2ccc(N3CCOC3=O)cc2)C1 (stereo not drawn)
- inhibition in vivo at 32 mg/kg (male SWISS albino mice; po): 99.2 ± 0.8%

Compound: CCN1CC2C(COC)C2(c2ccc(N3CCOCC3)cc2)C1 (stereo not drawn)
- % decrease in immobility time (dose 64 mg/kg) (male SWISS albino mice; [10]): 58.4 ± 10.1%

Compound: CCN1C[C@H]2C[C@@]2(c2ccc(N3C[C@H](C)O[C@@H](C)C3)cc2)C1
- inhibition in vivo at 32 mg/kg (male SWISS albino mice; [9]): 79.8 ± 10.7%

Compound: CCOCC1C2CN(CC)CC12c1ccc(N2CCCC2)cc1 (stereo not drawn)
- inhibition in vivo at 32 mg/kg (male SWISS albino mice; [9]): 80.6 ± 13.7%

Compound: CC(=O)NC[C@H]1CN(c2ccc(N3CCOCC3)c(F)c2)C(=O)O1 [Linezolid, reference compound]
- MIC [1, 5]: 2 µg/mL (≈ 5.93 µM)
- MIC [2, 6]: 2 µg/mL (≈ 5.93 µM)
- MIC [3, 7]: 1 µg/mL (≈ 2.96 µM)
- MIC [4, 8]: 1 µg/mL (≈ 2.96 µM)

Compound: CC(=O)NC[C@H]1CN(c2ccc(C34CC3CN(C(C)=O)C4)cc2)C(=O)O1 (stereo partly drawn) [drawing 482]
- MIC [1, 5]: 2 µg/mL (≈ 5.6 µM)
- MIC [2, 6]: 2 µg/mL (≈ 5.6 µM)
- MIC [3, 7]: 2 µg/mL (≈ 5.6 µM)
- MIC [4, 8]: 1 µg/mL (≈ 2.8 µM)

Compound: CC(=O)N1CC2CC2(c2ccc(N3C[C@H](CO)OC3=O)cc2)C1 (stereo partly drawn) [drawing 484]
- MIC [1, 5]: 4 µg/mL (≈ 12.6 µM)
- MIC [2, 6]: 4 µg/mL (≈ 12.6 µM)
- MIC [3, 7]: 4 µg/mL (≈ 12.6 µM)
- MIC [4, 8]: 2 µg/mL (≈ 6.32 µM)

Compound: CC(=O)NC[C@H]1CN(c2ccc(C34CC3CN(C(C)=O)C4)cc2)C(=O)O1 (stereo partly drawn) [drawing 533]
- MIC ([1]; ATCC29212, Table 9, E. faecalis, read-out: Antimicrobial activity (in vitro MIC) ATCC 29212): 2 µg/mL (≈ 5.6 µM)
- MIC ([2]; Table 9, S. aureus MSSA, read-out: Antimicrobial activity (in vitro MIC) ATCC 29213): 2 µg/mL (≈ 5.6 µM)
- MIC ([3]; Table 9, read-out: Antimicrobial activity (in vitro MIC) ATCC 700221): 2 µg/mL (≈ 5.6 µM)
- MIC ([4]; Table 9, S. aureus MRSA, read-out: Antimicrobial activity (in vitro MIC) ATCC 33591): 1 µg/mL (≈ 2.8 µM)

— US8906913B2, “Azabicyclohexanes” (Panacea Biotec Limited, priority 2009, dated 2014)
